According to article PMC10082830, “A tailored tetravalent peptide displays dual functions to inhibit amyloid β production and aggregation” (Communications Biology, 2023):
Ends that are not written are not given here.

How the values were obtained:
[1] = biological target: T1, Aβ42 (Homo sapiens, UniProt P05067); experiment: ELISA binding between Aβ and LME peptides; conditions: LME-mono (33 µM) applied on plate, n = 3
T1 construct: purchased Peptide Institute
Procedure: (§1) The indicated amounts of LME-tet (8.3 µM) or LME-mono (33 µM) were applied onto each well of a regular 96-well ELISA plate (Thermo Fisher Scientific) and incubated overnight for 24 h. After blocking, the plate was incubated with various concentrations of Aβ1–28, Aβ40, or Aβ42 (Peptide Institute) for 2 h at room temperature. Bound Aβ was detected using mouse monoclonal anti-human Aβ antibody 82E1 (Immuno-Biological Laboratories Co., Ltd.) and HRP-conjugated horse anti-mouse IgG antibody (Cell Signaling Technology).

[2] = biological target: T2, Aβ40 (Homo sapiens, UniProt P05067); experiment: ELISA binding between Aβ and LME peptides; conditions: LME-mono (33 µM) applied on plate, n = 4
T2 construct: purchased Peptide Institute
T2 sequence (P05067 672-711 limits assumed): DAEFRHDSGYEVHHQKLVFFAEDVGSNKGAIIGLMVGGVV
Procedure: as §1

[3] = test system: Aβ1–28; experiment: ELISA binding between Aβ and LME peptides; conditions: LME-tet (8.3 µM) or LME-mono (33 µM) applied on plate, Aβ 2 h at room temperature, n = 3
Procedure: as §1

[4] = biological target: T1, Aβ42; experiment: Circular dichroism spectroscopy of Aβ42 conformational change; conditions: Aβ42 20 µM, peptide 2 µM, 50 mM sodium phosphate buffer pH 7.4, 37 °C, far-UV CD, molar ellipticity at 217 nm
Procedure: Fig. 5 LME-tet inhibits the conformational change and subsequent fibrillation of Aβ42. a Binding of LME-tet to extracellular Aβ. Culture medium from 7WD10 cells recovered after 48 h of growth was treated with biotinylated LME-tet (50 µM) or LME-mono (200 µM). Medium was then incubated with streptavidin beads, and coprecipitating Aβ40 and Aβ42 were analyzed by western blot using anti-Aβ or anti-Aβ42-specific antibody. b Time-dependent conformational change in Aβ42 (20 µM) in the presence of LME-tet (2 µM, lower left panel) or LME-mono (2 µM, upper right panel). Far-UV circular dichroism (CD) spectra (wavelength 190–250 nm) were measured at the indicated time points. […] Data represent the mean ± SE; n = 3–4. c Fibrillation profiles of Aβ42 in the presence of LME-tet (2 µM) or LME-mono (2 µM), measured by Thioflavin T-binding assay. […] Data represent the mean ± SE; n = 3. d Fibrillation profiles of Aβ42 in the presence of LME-tet (2 µM) or LME-mono (2 µM), analyzed by electron microscopy; representative images at ×10 K, ×50 K, and ×200 K magnification (left, right, and center, respectively) are shown. Scale bars indicate 2 µm, 400 nm, and 100 nm, respectively. e Effects of LME-tet (2 µM) on growth of Aβ42 fibril in the presence of 2% (v/v) Aβ42 fibril-seed, measured by the Thioflavin T-binding assay. […]

[5] = test system: 7WD10 cells; experiment: Lysosomal protease inhibitor treatment of 7WD10 cells, western blot; format: cell-based, Chinese Hamster; conditions: LME-tet (25 µM) or LME-mono (100 µM), lysosomal PI cocktail (E-64, leupeptin), 48 h
[6] = test system: 7WD10 Chinse Hamster Ovary (CHO) cells stably expressing human APP; experiment: Aβ production in 7WD10 cells, western blot of culture medium and cell lysates; format: cell-based, Chinese Hamster; conditions: 48 h, tetravalent peptides 50 µM, LME-mono 100 and 200 µM, n = 3
Procedure: 7WD10 Chinse Hamster Ovary (CHO) cells were treated with each tetravalent peptide (50 µM) for 48 h; cell lysates (for intracellular C99 and Aβ) and culture medium (for extracellular Aβ) from peptide-treated and vehicle control-treated cells were analyzed by western blot. Data are graphed as the percentage of the control value, showing the mean ± SE; n = 3. Significance vs. vehicle was calculated by analysis of variance (ANOVA), followed by one-sided Dunnett’s test; *P < 0.05, **P < 0.01. c Effect of increasing concentrations of LME-tet on Aβ production (left panel). 7WD10 cells were treated with vehicle control or LME-tet at the indicated concentrations for 48 h, and the culture medium was analyzed by western blot. Data are graphed as the percentage of the control value, showing the mean ± SE; n = 3. Significance vs. vehicle was calculated by ANOVA, followed by one-sided Dunnett’s test; *P < 0.05, **P < 0.01. Effect of LME-mono on Aβ production (right panels). 7WD10 cells were treated with vehicle control or LME-mono at the indicated concentrations for 48 h; cell lysates (for intracellular C99 and Aβ) and culture medium (for extracellular Aβ) were analyzed by western blot. […] Significance vs. vehicle was calculated by ANOVA, followed by one-sided Dunnett’s test; *P < 0.05. d Binding of LME-tet and LME-mono to Aβ1-28, Aβ40 and Aβ42 was measured by enzyme-linked immunosorbent assay (ELISA). […]

[7] = biological target: T1, Aβ42; conditions: equivalent molar concentration, after 8 h of incubation, Thioflavin T-binding assay; cited from earlier work

T1 sequence (P05067 672-713 limits assumed): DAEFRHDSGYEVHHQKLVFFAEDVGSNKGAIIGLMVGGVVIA

Row | Substance | binding to Aβ42 [1] | binding to Aβ40 [2] | binding to Aβ1–28 [3] | conformational change of Aβ42 (β-sheet formation) [4] | PI-dependent increase of intracellular APP, C99, Aβ, p62 and LC3-II [5] | inhibitory effect on production of Aβ [6] | inhibition of fibrillation of Aβ42 [7] [%]
1 | PKLRMKE [LME-mono, monomeric peptide with the same motif, Pro-Lys-Leu-Arg-Met-Lys-Glu] | unable to bind | unable to bind | unable to bind | no effect was observed | does not affect | has no effect | –
2 | Ac-KL-NVF-NFA-NH2 | – | – | – | – | – | – | 40
